Experiments:
[1] = biological target: T1, Prostaglandin G/H synthase 2 (Homo sapiens) (UniProt P35354); conditions: Sf9; at 10 µM;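 note: in vitro assay on recombinant human COX-2 produced in baculovirus-infected Sf9 insect cells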
T1 sequence (whole entry): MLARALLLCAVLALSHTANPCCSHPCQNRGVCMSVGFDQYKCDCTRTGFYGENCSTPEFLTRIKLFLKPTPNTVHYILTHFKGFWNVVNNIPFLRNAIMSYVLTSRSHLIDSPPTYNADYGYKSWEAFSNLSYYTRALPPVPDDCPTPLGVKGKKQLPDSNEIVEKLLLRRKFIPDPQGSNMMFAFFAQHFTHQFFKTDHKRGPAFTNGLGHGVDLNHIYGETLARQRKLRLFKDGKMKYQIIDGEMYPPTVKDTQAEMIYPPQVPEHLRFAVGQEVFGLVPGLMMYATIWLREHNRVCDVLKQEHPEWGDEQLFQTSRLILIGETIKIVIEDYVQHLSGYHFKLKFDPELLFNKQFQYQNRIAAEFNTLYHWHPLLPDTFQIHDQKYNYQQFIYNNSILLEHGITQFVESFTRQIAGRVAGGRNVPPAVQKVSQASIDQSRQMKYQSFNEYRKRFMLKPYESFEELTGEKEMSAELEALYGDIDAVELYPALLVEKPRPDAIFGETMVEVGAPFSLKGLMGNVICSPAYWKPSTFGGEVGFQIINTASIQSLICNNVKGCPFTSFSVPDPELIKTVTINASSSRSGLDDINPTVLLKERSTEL
Description: In vitro inhibitory activity against human recombinant prostaglandin G/H synthase 2 (COX-2) at 10 uM expressed in sf-9 cells infected with baculovirus

[2] = biological target: T2, Prostaglandin G/H synthase 1 (Ovis aries) (UniProt P05979); conditions: at 10 µM
T2 sequence (whole entry): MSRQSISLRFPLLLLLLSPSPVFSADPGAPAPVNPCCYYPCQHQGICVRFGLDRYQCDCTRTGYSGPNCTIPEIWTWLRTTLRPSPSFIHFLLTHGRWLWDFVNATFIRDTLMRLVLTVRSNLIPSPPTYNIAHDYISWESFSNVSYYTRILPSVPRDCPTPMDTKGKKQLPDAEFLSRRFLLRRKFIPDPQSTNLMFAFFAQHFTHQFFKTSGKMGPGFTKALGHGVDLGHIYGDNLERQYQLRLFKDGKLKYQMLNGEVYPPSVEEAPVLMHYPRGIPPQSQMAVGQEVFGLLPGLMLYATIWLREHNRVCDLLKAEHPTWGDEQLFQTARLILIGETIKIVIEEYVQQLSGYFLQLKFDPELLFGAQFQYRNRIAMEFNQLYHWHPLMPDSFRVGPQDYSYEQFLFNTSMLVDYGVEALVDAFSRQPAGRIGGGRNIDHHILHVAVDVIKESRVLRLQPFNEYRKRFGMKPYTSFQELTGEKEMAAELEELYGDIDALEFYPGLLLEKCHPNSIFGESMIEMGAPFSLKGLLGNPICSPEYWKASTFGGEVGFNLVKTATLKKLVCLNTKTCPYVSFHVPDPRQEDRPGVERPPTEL
Description: In vitro inhibitory activity against prostaglandin G/H synthase 1 (COX-1) from the microsomal fraction of ram seminal vesicles at 10 uM concentration

[3] = biological target: T3, Prostaglandin G/H synthase 1 (Ovis aries, UniProt P05979); test: In vitro inhibitory activity against prostaglandin G/H synthase 1 from the microsomal fraction of ram seminal vesicles
T3 sequence (P05979 whole entry): T2 sequence (whole entry)

| SMILES | inhibition [1] [%] | inhibition [2] [%] | IC50 [3] [µM] |
| --- | --- | --- | --- |
| Cc1cc(-c2ccc(NS(C)(=O)=O)cc2)n(-c2ccc([N+](=O)[O-])cn2)n1 | 13 | 0 |  |
| CS(=O)(=O)Nc1ccc(-c2cc(C(F)(F)F)nn2-c2ccc(Cl)cc2)cc1 | 100 | 25 | 15.6 |
| CS(=O)(=O)Nc1ccc(-c2cc(C(F)(F)F)nn2-c2ccc(Cl)c(Cl)c2)cc1 | 70 | 10 |  |
| CS(=O)(=O)Nc1ccc(-c2cc(C(F)(F)F)nn2-c2ccc(F)cc2)cc1 | 65 | 6 | 20.3 |
| CCC(=O)N(c1ccc(-c2cc(C(F)F)nn2-c2ccc(Cl)cc2)cc1)S(C)(=O)=O | 36 | 100 |  |
| CC(=O)N(c1ccc(-c2cc(C(F)F)nn2-c2ccc(Cl)cc2)cc1)S(C)(=O)=O | 17 | 66 |  |
| Cc1cc(-c2ccc(NS(C)(=O)=O)cc2)n(-c2ccccc2)n1 | 7 | 34 |  |
| CS(=O)(=O)Nc1ccc(-c2cc(C(F)(F)F)nn2-c2ccccc2F)cc1 | 89 | 97 |  |
| Cc1cc(-c2ccc(NS(C)(=O)=O)cc2)n(-c2ccc(Cl)cc2)n1 | 88 | 0 | 100 |
| CC(=O)Nc1ccc(-c2cc(C(F)(F)F)nn2-c2ccc(S(N)(=O)=O)cc2CO)cc1 | 0 | 59 |  |
| CCCC(=O)N(c1ccc(-c2cc(C(F)F)nn2-c2ccc(Cl)cc2)cc1)S(C)(=O)=O | 42 | 100 |  |
| CS(=O)(=O)Nc1ccc(-c2cc(C(F)(F)F)nn2-c2cccc(Cl)c2)cc1 | 3 | 96 |  |
| CC(=O)Nc1ccc(-c2cc(C(F)(F)F)nn2-c2ccc(Br)cc2)cc1 | 87 | 100 | 3.5 |
| CS(=O)(=O)Nc1ccc(-c2cc(C(F)F)nn2-c2cccc(F)c2)cc1 | 67 | 97 |  |
| CS(=O)(=O)Nc1ccc(-c2cc(C(F)F)nn2-c2ccc(F)cc2)cc1 | 62 | 22 |  |
| CCC(=O)N(c1ccc(-c2cc(C(F)(F)F)nn2-c2ccc(Cl)cc2)cc1)S(C)(=O)=O | 65 | 18 |  |
| CS(=O)(=O)Nc1ccc(-c2cc(C(F)(F)F)nn2-c2ccc([N+](=O)[O-])cc2)cc1 | 0 | 34 |  |
| CS(=O)(=O)Nc1ccc(-c2cc(C(F)(F)F)nn2-c2ccc(F)c(F)c2)cc1 | 59 | 32 |  |
| CS(=O)(=O)Nc1ccc(-c2cc(C(F)F)nn2-c2ccc(Cl)c(Cl)c2)cc1 | 71 | 43 |  |
| CNc1ccc(-n2nc(C(F)(F)F)cc2-c2ccc(NS(C)(=O)=O)cc2)cc1 | 42 | 14 |  |
| CS(=O)(=O)Nc1ccc(-c2cc(C(F)F)nn2-c2ccc(F)c(F)c2)cc1 | 36 | 11 |  |

| SMILES | inhibition [1] [%] | inhibition [2] [%] | IC50 [3] [µM] |
| --- | --- | --- | --- |
| CC(=O)Nc1ccc(-c2cc(C)nn2-c2ccc(Br)cc2)cc1 | 80 | 9 | 13.3 |
| CS(=O)(=O)Nc1ccc(-c2cc(C(F)F)nn2-c2ccccc2)cc1 | 31 | 22 |  |
| Cc1cc(-c2ccc(NS(C)(=O)=O)cc2)n(-c2ccc([N+](=O)[O-])cc2)n1 | 0 | 40 |  |
| CS(=O)(=O)Nc1ccc(-c2cc(C(F)F)nn2-c2ccccc2F)cc1 | 89 | 90 |  |
| CS(=O)(=O)Nc1ccc(-c2cc(C(F)(F)F)nn2-c2ccc(N)cc2)cc1 | 69 | 22 | 31.6 |
| Cc1ccc(S(=O)(=O)Nc2ccc(-c3cc(C(F)(F)F)nn3-c3ccc(Cl)cc3)cc2)cc1 | 70 | 0 |  |
| CS(=O)(=O)Nc1ccc(-c2cc(C(F)F)nn2-c2ccccc2Cl)cc1 | 22 | 66 |  |
| CS(=O)(=O)Nc1ccc(-c2cc(C(F)F)nn2-c2ccc(Cl)cc2)cc1 | 100 | 0 | 63 |
| CC(=O)N(c1ccc(-c2cc(C(F)(F)F)nn2-c2ccc(Cl)cc2)cc1)S(C)(=O)=O | 63 | 0 |  |
| Cc1cc(-c2ccc(NS(C)(=O)=O)cc2)n(-c2ccc(F)cc2)n1 | 25 | 0 |  |
| CS(=O)(=O)Nc1ccc(-c2cc(C(F)(F)F)nn2-c2ccc(S(N)(=O)=O)cc2CO)cc1 | 12 | 42 |  |
| Cc1cc(-c2ccc(NS(C)(=O)=O)cc2)n(-c2ccc(Br)cc2)n1 | 100 | 10 | 63 |
| CS(=O)(=O)Nc1ccc(-c2cc(C(F)(F)F)nn2-c2ccc(Br)cc2)cc1 | 100 | 88 | 4.9 |
| CS(=O)(=O)N(c1ccc(-c2cc(C(F)(F)F)nn2-c2ccc(Cl)cc2)cc1)S(C)(=O)=O | 13 | 14 |  |
| CS(=O)(=O)Nc1ccc(-c2cc(C(F)(F)F)nn2-c2ccc([N+](=O)[O-])cn2)cc1 | 13 | 0 |  |
| CS(=O)(=O)Nc1ccc(-c2cc(C(F)(F)F)nn2-c2cccc(F)c2)cc1 | 70 | 49 |  |
| CS(=O)(=O)Nc1ccc(-c2cc(C(F)(F)F)nn2-c2ccccc2)cc1 | 100 | 0 | 85.3 |
| CN(C)c1ccc(-n2nc(C(F)(F)F)cc2-c2ccc(NS(C)(=O)=O)cc2)cc1 | 100 | 85 | 3.4 |
| CS(=O)(=O)Nc1ccc(-c2cc(C(F)F)nn2-c2ccc(S(N)(=O)=O)cc2CO)cc1 | 0 | 100 |  |
| CCCC(=O)N(c1ccc(-c2cc(C(F)(F)F)nn2-c2ccc(Cl)cc2)cc1)S(C)(=O)=O | 62 | 0 |  |
